Results: ChEMBL document CHEMBL5465560, “Selectivity Literature for EUbOPEN Chemogenomic Library” (2024)

Tests used:
[1] = biological target: Casein kinase I isoform gamma-1 (Homo sapiens) (UniProt Q9HCP0); experiment: Selectivity interaction (Upstate Kinase Profiler service (Millipore)) EUB0000056c CSNK1G1; settings: at 1 µM
[2] = biological target: T1, Mitogen-activated protein kinase kinase kinase 2 (Homo sapiens) (UniProt Q9Y2U5); experiment: Selectivity interaction (KinomeScan (DiscoverX)) EUB0000655a MAP3K2; settings: at 10 µM
T1 sequence (whole entry): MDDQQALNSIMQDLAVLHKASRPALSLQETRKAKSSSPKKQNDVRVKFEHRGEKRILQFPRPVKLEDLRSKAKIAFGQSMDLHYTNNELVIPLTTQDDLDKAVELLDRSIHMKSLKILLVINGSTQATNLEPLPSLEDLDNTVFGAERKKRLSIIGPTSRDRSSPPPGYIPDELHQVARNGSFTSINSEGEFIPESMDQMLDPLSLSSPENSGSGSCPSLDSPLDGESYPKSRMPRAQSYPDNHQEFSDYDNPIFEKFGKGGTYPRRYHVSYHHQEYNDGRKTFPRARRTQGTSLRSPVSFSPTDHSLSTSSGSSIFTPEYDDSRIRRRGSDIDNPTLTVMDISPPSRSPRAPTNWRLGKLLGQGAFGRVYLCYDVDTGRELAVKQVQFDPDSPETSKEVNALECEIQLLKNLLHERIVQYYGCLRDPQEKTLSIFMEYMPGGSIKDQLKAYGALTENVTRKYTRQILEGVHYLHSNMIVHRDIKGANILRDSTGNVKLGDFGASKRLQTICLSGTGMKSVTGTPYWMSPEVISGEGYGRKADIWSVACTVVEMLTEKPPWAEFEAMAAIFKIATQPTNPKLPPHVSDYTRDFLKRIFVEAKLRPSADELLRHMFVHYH

[3] = biological target: Tyrosine-protein kinase Lyn (Homo sapiens, UniProt P07948); experiment: Selectivity interaction (ProQinase) EUB0000171b LYN
Tyrosine-protein kinase Lyn, sequence (P07948 2-512 limits assumed): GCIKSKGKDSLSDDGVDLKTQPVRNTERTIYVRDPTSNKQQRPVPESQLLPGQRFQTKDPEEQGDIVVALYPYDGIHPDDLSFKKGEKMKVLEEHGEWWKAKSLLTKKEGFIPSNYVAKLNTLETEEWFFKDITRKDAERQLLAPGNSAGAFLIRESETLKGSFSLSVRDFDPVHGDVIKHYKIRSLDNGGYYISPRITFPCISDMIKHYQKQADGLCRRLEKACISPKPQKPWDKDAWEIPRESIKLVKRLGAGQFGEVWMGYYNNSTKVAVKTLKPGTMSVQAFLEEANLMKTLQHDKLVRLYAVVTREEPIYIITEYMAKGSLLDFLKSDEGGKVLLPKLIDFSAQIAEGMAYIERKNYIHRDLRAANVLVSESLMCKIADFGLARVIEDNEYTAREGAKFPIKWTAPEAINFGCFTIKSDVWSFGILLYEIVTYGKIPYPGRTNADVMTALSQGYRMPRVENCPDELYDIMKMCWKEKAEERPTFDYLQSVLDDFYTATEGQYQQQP

[4] = test system: Tyrosine-protein kinase ABL1 (Homo sapiens), P00519 [F317L]; experiment: Selectivity interaction (KinomeScan (DiscoverX)) EUB0001079a ABL1; settings: at 1 µM
Tyrosine-protein kinase ABL1 (Homo sapiens), P00519 [F317L], sequence (P00519 whole entry F317L): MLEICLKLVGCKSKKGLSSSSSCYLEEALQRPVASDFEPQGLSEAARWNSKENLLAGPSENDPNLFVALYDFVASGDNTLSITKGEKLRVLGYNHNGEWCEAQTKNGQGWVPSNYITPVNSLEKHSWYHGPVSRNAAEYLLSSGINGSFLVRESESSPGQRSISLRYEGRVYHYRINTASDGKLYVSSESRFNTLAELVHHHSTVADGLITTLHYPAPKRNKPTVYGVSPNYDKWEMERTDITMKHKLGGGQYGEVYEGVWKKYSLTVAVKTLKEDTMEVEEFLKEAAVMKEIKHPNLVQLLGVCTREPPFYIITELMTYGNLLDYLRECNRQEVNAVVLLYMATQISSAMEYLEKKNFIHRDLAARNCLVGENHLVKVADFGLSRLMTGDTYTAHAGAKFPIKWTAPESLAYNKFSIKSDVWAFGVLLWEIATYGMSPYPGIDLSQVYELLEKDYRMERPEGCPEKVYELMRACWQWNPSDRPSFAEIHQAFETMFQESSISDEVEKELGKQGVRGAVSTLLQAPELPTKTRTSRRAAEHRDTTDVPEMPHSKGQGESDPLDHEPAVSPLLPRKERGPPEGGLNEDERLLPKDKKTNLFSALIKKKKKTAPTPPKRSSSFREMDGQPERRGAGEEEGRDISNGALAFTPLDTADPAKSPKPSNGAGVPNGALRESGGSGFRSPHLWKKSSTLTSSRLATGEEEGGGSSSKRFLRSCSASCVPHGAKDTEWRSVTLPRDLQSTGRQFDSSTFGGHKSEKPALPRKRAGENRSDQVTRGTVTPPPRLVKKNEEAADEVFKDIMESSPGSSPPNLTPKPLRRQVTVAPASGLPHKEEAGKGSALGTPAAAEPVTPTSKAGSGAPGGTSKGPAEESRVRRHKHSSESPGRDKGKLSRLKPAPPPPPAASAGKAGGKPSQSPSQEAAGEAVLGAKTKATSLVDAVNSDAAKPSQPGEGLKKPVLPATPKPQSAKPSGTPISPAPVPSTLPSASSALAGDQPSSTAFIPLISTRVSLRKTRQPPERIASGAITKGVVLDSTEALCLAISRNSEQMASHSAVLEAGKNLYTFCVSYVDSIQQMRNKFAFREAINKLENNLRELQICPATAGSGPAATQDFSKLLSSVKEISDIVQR

[5] = biological target: Fibroblast growth factor receptor 4 (Homo sapiens, UniProt P22455); experiment: Selectivity interaction (KinomeScan (DiscoverX)) EUB0000666a FGFR4; settings: at 10 µM
Fibroblast growth factor receptor 4, sequence (P22455 22-802 limits assumed): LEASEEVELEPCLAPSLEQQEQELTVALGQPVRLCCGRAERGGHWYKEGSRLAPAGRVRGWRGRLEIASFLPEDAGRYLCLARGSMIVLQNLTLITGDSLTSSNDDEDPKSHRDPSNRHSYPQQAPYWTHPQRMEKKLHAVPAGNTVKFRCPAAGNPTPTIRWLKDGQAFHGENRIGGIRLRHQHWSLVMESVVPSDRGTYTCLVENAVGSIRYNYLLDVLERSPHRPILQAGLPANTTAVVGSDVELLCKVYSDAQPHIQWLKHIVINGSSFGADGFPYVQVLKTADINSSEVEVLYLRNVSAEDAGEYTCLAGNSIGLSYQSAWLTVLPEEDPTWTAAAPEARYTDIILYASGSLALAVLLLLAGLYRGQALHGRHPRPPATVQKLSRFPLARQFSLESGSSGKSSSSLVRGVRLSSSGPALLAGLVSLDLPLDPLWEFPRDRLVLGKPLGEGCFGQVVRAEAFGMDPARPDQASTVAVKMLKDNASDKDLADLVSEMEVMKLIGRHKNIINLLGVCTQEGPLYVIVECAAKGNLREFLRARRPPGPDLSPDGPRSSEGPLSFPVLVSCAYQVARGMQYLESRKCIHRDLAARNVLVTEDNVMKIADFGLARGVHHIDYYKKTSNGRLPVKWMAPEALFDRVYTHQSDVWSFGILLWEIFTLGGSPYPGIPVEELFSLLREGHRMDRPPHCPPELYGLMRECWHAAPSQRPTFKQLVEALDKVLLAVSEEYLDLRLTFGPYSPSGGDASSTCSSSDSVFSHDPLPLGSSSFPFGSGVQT

[6] = biological target: Activin receptor type-2A (Homo sapiens) (UniProt P27037); settings: at 10 µM
Activin receptor type-2A (Homo sapiens), sequence (P27037 whole entry): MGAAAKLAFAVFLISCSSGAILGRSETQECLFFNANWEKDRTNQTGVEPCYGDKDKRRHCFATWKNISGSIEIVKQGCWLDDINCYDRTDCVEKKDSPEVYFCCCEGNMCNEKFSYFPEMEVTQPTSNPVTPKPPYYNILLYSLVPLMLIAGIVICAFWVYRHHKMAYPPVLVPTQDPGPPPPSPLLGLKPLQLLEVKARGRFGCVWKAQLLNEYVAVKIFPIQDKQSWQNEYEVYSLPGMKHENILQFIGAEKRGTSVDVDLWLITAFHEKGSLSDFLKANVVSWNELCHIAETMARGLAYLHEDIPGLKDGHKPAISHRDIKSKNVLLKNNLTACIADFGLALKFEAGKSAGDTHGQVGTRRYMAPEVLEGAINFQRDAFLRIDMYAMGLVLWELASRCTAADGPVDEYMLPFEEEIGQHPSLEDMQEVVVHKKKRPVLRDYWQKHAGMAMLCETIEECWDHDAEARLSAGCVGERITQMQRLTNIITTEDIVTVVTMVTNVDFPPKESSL

[7] = biological target: Interferon-induced, double-stranded RNA-activated protein kinase (Homo sapiens) (UniProt P19525); experiment: Selectivity interaction (ActivX KiNativ screen (kinase selectivity in THP-1 cell lysates)) EUB0000639a EIF2AK2; type: subcellular; settings: lysate, at 0.2 µM
Interferon-induced, double-stranded RNA-activated protein kinase (Homo sapiens), sequence (P19525 whole entry): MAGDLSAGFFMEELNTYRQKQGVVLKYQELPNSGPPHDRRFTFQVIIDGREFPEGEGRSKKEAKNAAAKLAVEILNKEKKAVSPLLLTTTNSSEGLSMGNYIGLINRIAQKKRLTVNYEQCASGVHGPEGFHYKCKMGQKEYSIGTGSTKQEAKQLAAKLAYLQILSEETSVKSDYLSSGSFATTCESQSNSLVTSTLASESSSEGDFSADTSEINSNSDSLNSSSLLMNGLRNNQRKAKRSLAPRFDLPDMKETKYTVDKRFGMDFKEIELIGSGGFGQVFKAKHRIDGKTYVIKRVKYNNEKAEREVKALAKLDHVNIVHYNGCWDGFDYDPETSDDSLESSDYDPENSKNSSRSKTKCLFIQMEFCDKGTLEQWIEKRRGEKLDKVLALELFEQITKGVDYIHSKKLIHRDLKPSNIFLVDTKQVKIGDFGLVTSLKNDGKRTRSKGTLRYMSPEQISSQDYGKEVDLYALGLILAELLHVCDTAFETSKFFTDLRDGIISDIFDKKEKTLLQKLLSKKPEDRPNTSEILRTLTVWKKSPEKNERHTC

[8] = biological target: Phosphatidylinositol 4-kinase alpha (Homo sapiens, UniProt P42356); experiment: Selectivity interaction (Kinase panel (Invitrogen)) EUB0000639a PI4KA; settings: at 200 nM
[9] = biological target: Dual specificity mitogen-activated protein kinase kinase 1 (Homo sapiens, UniProt Q02750); experiment: Selectivity interaction (KinomeScan (DiscoverX)) EUB0000618a MAP2K1; settings: at 10 µM
Dual specificity mitogen-activated protein kinase kinase 1, sequence (Q02750 whole entry): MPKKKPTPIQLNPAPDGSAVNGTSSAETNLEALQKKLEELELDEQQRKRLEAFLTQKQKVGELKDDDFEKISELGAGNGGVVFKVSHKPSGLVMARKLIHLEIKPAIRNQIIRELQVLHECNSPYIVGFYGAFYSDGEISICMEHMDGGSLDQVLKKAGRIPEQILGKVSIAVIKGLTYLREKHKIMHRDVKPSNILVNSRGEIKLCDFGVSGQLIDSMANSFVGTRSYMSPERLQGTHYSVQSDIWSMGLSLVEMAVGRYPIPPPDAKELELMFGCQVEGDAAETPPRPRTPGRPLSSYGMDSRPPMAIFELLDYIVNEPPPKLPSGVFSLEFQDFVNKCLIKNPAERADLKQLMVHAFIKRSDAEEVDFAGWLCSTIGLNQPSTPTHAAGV

[10] = biological target: Tyrosine-protein kinase ABL2 (Homo sapiens, UniProt P42684); experiment: Selectivity interaction (ActivX KiNativ screen (ex vivo kinase selectivity in human PBMCs)) EUB0001619a ABL2; type: cell-based; settings: PBMC, at 1 µM
Tyrosine-protein kinase ABL2, sequence (P42684 whole entry): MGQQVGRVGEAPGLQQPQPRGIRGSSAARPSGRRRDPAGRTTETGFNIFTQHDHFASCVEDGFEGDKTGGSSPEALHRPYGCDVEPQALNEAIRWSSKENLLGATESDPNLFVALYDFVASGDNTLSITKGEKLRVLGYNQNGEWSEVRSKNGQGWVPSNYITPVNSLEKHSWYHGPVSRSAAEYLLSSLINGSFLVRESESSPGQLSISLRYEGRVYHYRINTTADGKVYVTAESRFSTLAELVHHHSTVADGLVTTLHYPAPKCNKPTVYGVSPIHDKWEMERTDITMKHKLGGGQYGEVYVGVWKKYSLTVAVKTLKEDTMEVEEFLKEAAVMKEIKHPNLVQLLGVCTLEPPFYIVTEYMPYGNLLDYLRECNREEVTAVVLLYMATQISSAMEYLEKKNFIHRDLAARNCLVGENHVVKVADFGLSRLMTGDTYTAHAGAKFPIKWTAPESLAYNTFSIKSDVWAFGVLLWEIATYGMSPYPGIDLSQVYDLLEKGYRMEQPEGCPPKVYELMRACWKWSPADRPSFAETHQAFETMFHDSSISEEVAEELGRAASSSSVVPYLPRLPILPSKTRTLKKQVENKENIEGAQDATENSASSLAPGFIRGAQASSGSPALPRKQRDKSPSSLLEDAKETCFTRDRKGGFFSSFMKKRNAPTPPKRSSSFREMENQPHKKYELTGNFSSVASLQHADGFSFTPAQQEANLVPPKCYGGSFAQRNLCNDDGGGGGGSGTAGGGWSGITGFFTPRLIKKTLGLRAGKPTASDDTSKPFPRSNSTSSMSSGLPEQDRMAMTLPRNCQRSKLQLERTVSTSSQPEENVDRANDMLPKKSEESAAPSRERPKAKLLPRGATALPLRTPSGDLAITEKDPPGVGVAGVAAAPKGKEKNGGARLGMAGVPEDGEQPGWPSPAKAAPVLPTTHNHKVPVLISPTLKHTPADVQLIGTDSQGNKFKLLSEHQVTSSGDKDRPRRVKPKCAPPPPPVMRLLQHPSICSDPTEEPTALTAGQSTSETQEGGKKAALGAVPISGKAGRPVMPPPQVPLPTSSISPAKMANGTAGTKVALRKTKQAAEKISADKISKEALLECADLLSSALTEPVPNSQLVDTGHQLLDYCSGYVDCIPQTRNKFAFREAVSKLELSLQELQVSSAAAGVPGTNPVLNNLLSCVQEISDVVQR

[11] = biological target: T2, Tyrosine-protein kinase JAK3 (Homo sapiens) (UniProt P52333); experiment: Selectivity interaction (ActivX KiNativ screen (ex vivo kinase selectivity in human PBMCs)) EUB0001619a JAK3; type: cell-based; settings: PBMC, at 1 µM
T2 sequence (whole entry): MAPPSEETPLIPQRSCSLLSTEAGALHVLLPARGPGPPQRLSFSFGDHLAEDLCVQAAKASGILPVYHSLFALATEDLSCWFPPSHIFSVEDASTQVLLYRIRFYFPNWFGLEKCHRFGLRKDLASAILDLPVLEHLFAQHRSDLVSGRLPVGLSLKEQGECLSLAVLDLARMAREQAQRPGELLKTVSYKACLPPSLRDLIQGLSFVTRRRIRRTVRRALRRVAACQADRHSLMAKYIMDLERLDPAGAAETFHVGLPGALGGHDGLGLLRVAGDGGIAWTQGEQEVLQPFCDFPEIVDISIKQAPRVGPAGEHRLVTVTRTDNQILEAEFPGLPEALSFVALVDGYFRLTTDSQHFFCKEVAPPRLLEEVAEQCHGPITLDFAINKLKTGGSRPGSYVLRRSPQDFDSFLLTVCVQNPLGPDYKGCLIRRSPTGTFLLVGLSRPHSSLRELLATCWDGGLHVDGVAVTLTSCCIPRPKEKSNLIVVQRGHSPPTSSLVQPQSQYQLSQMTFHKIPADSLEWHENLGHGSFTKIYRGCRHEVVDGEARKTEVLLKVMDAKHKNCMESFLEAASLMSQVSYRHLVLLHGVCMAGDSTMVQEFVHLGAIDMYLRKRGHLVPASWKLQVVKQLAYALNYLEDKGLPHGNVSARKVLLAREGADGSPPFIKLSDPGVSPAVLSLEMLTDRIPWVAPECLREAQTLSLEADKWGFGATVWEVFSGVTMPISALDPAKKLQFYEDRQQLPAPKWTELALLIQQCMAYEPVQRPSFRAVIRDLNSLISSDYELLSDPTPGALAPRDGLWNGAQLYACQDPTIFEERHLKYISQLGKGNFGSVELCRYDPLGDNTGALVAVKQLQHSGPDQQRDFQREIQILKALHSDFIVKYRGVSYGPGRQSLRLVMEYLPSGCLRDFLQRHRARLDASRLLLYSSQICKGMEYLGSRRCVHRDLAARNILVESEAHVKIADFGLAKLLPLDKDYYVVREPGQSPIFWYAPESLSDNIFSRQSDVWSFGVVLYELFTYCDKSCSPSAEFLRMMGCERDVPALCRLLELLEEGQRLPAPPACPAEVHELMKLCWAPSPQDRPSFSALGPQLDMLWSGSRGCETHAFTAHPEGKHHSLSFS

Q: For `Cc1ccc(-c2ccc3c(ccc4sc5c(c43)NC[C@@H](C)NC5=O)n2)cn1`, which % of inhibition [1] is on record?
A: 23%

Q: For `CN(C)CCOc1ccc(-c2nc(-c3ccncc3)c(-c3ccc4c(c3)CC/C4=N\O)[nH]2)cc1`, which % of control [2] is on record?
A: 69%

Q: Which results are given for `C=CC(=O)Nc1cccc(C(=O)Nc2ccc(Nc3cc(-c4[nH]c(SC)nc4C)ccn3)cc2)c1`?
A: % of control ([3]; at 1 µM): 99%; % of control ([3]; at 5 µM): 94%

Q: With `Nc1cnc(N2CCc3cc(S(=O)(=O)Nc4c(F)cc(Cl)cc4F)cc(N4CCCC4=O)c32)nc1` [TP-020n] as the compound, how does the % of control [4] read?
A: 78%

Q: How did the % of control [5] turn out when `O=C(NOC[C@H](O)CO)c1ccc(F)c(F)c1Nc1ccc(I)cc1F` was run?
A: 54%

Q: `Cc1cc([C@@H](C)Nc2ccccc2C(=O)O)c2nc(N3CCOCC3)cc(=O)n2c1` [AZD-6482] was tested. Which % of control [6] did it give?
A: 94%

Q: Which % of inhibition [7] does the source give for `CC[C@@H]1[C@H](F)C(=O)N[C@@H]1COc1nccc2cc(C(N)=O)c(OC)cc12` [ZIMLOVISERTIB] here?
A: -4.9%

Q: And the % of inhibition [8]?
A: -0.209%

Q: How did the % of control [9] turn out when `O[C@H]1CC[C@H](Nc2ncc3nc(Nc4c(F)cc(F)cc4F)n([C@H]4CCOC4)c3n2)CC1` was run?
A: 100%

Q: Which % of inhibition [10] does the source give for `N#Cc1cccc(-c2c[nH]c3ncnc(N4CCOCC4)c23)c1` here?
A: -53%

Q: And the % of inhibition [11]?
A: 7%
